Test results as given in PMC8009520, “Exploration of TRPM8 Binding Sites by β-Carboline-Based Antagonists and Their In Vitro Characterization and In Vivo Analgesic Activities” (Journal of Medicinal Chemistry, 2020).
Read-outs that look alike come from different tables or passages of the source.

Molecular target: T1, rat isoform of TRPM8 channels (Rattus norvegicus, UniProt Q8R455)
T1 construct: expressed in transfected cells
Test: Ca2+ fluorimetric assay, menthol-activated channel
Assay type: cell-based
Procedure: TRPM8 blocker activity of all synthesized compounds was tested by Ca^2+ fluorimetric assays using HEK-293 cells stably expressing the rat isoform of TRPM8 channels, using menthol and AMTB as prototypical agonist and antagonist, respectively.
For measurement of the potency of the compounds, fluorimetric experiments were performed using HEK-293 cells (CRL-1573TM, American Type Culture Collection, LGC Promochem, Molsheim, France) that stably express rat TRPM8. The cells were seeded in 96-well plates (Corning Incorporated, Corning, NY) at a cell density of 40 000 cells 2 days before treatment. On the day of treatment, the medium was replaced with 100 μL of the dye loading solution Fluo-4 NW supplemented with probenecid 2.5 mM.
The tested molecules dissolved in DMSO were added at the desired concentrations, and the plates were incubated in darkness at 37 °C in a humidified atmosphere of 5% CO2 for 60 min. The fluorescence was measured using instrument settings appropriate for excitation at 485 nm and emission at 535 nm (POLARstar Omega BMG LABtech). A baseline recording of four cycles was recorded prior to stimulation with the agonist (100 μM menthol for TRPM8). The TRPM8 antagonist, 10 μM AMTB, was added to the medium containing the corresponding agonist to induce channel blockade. The changes in fluorescence intensity were recorded during 15 cycles more. The higher concentration of DMSO used in the experiment was added to the control wells. The cells’ fluorescence was measured before and after the addition of various concentrations of test compounds. The fluorescence values obtained are normalized to that prompted by the corresponding agonist (for channel activating compounds) or upon agonist and antagonist coexposure (for channel blocker compounds).

[1] = HEK-293 cells stably expressing rat TRPM8, menthol as agonist, mean ± SD of at least three measurements, read-out: IC50
[2] = supplementary xlsx, read-out: rTRPM8 IC50 (calcium microfluorimetric assays)

T1 sequence (Q8R455 whole entry, canonical isoform): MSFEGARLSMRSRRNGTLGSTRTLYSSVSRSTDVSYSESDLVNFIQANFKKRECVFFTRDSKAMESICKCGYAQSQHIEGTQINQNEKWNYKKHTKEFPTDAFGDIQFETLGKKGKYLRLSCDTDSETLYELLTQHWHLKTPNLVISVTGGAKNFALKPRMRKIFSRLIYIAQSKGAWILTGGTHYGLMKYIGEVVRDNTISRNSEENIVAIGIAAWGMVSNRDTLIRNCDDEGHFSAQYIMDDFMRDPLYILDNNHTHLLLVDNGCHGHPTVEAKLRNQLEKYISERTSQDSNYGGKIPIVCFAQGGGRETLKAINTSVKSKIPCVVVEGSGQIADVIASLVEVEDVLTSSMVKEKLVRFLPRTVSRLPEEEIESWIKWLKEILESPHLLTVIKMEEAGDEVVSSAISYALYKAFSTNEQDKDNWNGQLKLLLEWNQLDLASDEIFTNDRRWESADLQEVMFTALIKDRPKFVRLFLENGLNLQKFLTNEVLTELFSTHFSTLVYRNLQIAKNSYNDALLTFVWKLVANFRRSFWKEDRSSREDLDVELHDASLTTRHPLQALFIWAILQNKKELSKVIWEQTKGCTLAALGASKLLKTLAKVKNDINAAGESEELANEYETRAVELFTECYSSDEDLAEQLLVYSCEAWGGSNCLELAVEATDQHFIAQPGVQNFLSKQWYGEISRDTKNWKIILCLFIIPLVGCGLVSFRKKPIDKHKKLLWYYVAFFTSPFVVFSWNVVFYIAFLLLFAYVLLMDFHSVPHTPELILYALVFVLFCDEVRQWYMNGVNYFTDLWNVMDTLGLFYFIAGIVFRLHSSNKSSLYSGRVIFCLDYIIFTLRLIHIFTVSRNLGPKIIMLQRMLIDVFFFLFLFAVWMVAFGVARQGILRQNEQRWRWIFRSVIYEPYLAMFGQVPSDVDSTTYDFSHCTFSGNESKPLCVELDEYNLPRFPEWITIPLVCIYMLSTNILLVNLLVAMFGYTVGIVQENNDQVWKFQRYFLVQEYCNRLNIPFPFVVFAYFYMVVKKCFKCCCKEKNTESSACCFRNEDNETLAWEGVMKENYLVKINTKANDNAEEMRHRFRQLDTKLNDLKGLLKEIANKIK

Row | SMILES | IC50 [1] [µM] | IC50 [2] [µM] | rTRPM8 IC50 (calcium microfluorimetric assays) (supplementary xlsx) [µM]
1 | COC(=O)[C@@H]1Cc2c([nH]c3ccccc23)[C@H](c2ccccc2)N1Cc1ccccc1 [6b, (1S,3S)-Methyl 2-Benzyl-1-phenyl-2,3,4,9-tetrahydro-1H-pyrido[3,4-b]indole-3-carboxylate] | 1.6 ± 0.9 | 1.4 ± 1.3 | 
2 | CC(C)C[C@H]1N[C@H](C(=O)NCc2ccc(F)cc2)Cc2c1[nH]c1ccccc21 [10a, (1R,3S)-N-(4-Fluorobenzyl)-1-isobutyl-2,3,4,9-tetrahydro-1H-pyrido[3,4-b]indole-3-carboxamide] | 4.6 ± 1.3 |  | 
3 | CC(C)C[C@@H]1N[C@H](C(=O)NCc2ccc(F)cc2)Cc2c1[nH]c1ccccc21 [10b, (1S,3S)-N-(4-Fluorobenzyl)-1-isobutyl-2,3,4,9-tetrahydro-1H-pyrido[3,4-b]indole-3-carboxamide] | 6.2 ± 1.2 |  | 
4 | COC(=O)CC[C@@H]1N[C@H](C(=O)NCc2ccc(F)cc2)Cc2c1[nH]c1ccccc21 [11b, Methyl 3-((1S,3S)-3-((4-Fluorobenzyl)carbamoyl)-2,3,4,9-tetrahydro-1H-pyrido[3,4-b]indol-1-yl)propanoate] | 3 ± 1.2 |  | 
5 | CC(C)C[C@@H]1c2[nH]c3ccccc3c2C[C@H]2C(=O)N[C@@H](Cc3ccccc3)C(=O)N12 [25a, (3S,6R,12aS)-3-Benzyl-6-isobutyl-2,3,12,12a-tetrahydropyrazino[1′,2′:1,6]pyrido[3,4-b]indole-1,4(6H,7H)-dione] | 4.1 ± 1.1 |  | 
6 | CC(C)C[C@H]1c2[nH]c3ccccc3c2C[C@H]2C(=O)N[C@@H](Cc3ccccc3)C(=O)N21 [25b, (3S,6S,12aS)-3-Benzyl-6-isobutyl-2,3,12,12a-tetrahydropyrazino[1′,2′:1,6]pyrido[3,4-b]indole-1,4(6H,7H)-dione] | 1.3 ± 0.6 | 0.9 ± 1.2 | 
7 | COc1ccc(CN2C(=O)[C@H]3Cc4c([nH]c5ccccc45)[C@H](CC(C)C)N3C2=O)cc1 [29a′, (5S,11aR)-5-Isobutyl-2-(4-methoxybenzyl)-5,6,11,11a-tetrahydro-1H-imidazo[1′,5′:1,6]pyrido[3,4-b]indole-1,3(2H)-dione] | 22.9 ± 1.4 |  | 
8 | Cc1ccc(CN2C(=O)[C@H]3Cc4c([nH]c5ccccc45)[C@H](c4ccc(Cl)cc4)N3C2=O)cc1 [30a′, (5S,11aR)-5-(4-Chlorophenyl)-2-(4-methylbenzyl)-5,6,11,11a-tetrahydro-1H-imidazo[1′,5′:1,6]pyrido[3,4-b]indole-1,3(2H)-dione] | 2.3 ± 0.8 |  | 
9 | O=C1[C@H]2Cc3c([nH]c4ccccc34)[C@H](c3ccc(Cl)cc3)N2C(=O)N1Cc1ccc(F)cc1 [31a′, (5S,11aR)-5-(4-Chlorophenyl)-2-(4-fluorobenzyl)-5,6,11,11a-tetrahydro-1H-imidazo[1′,5′:1,6]pyrido[3,4-b]indole-1,3(2H)-dione] | > 30 |  | 
10 | O=C1[C@H]2Cc3c([nH]c4ccccc34)[C@H](c3ccc(F)cc3)N2C(=O)N1Cc1ccccc1 [33a′, (5S,11aR)-2-Benzyl-5-(4-fluorophenyl)-5,6,11,11a-tetrahydro-1H-imidazo[1′,5′:1,6]pyrido[3,4-b]indole-1,3(2H)-dione] | 17.5 ± 1.4 |  | 
11 | NCCCN1C(=O)[C@H]2Cc3c([nH]c4ccccc34)[C@H](c3ccc(F)cc3)N2C1=O [35a′, (5S,11aR)-2-(3-Aminopropyl)-5-(4-fluorophenyl)-5,6,11,11a-tetrahydro-1H-imidazo[1′,5′:1,6]pyrido[3,4-b]indole-1,3(2H)-dione] | 27.2 ± 1.4 |  | 
12 | O=C1[C@H]2Cc3c([nH]c4ccccc34)[C@H](c3ccc(F)cc3)N2C(=O)N1c1cccc(C(F)(F)F)c1 [36a′, (5S,11aR)-5-(4-Fluorophenyl)-2-(3-(trifluoromethyl)phenyl)-5,6,11,11a-tetrahydro-1H-imidazo[1′,5′:1,6]pyrido[3,4-b]indole-1,3(2H)-dione] | 7.8 ± 2.4 |  | 
13 | O=C1[C@H]2Cc3c([nH]c4ccccc34)[C@H](c3ccc(F)cc3)N2C(=O)N1c1ccccc1F [37a′, (5S,11aR)-2-(2-Fluorophenyl)-5-(4-fluorophenyl)-5,6,11,11a-tetrahydro-1H-imidazo[1′,5′:1,6]pyrido[3,4-b]indole-1,3(2H)-dione] | 5.1 ± 2.1 |  | 
14 | O=C1[C@H]2Cc3c([nH]c4ccccc34)[C@H](c3ccc(F)cc3)N2C(=O)N1c1ccc(F)cc1 [38a′, (5S,11aR)-2,5-Bis(4-fluorophenyl)-5,6,11,11a-tetrahydro-1H-imidazo[1′,5′:1,6]pyrido[3,4-b]indole-1,3(2H)-dione] | 7.2 ± 0.9 |  | 
15 | Cc1cccc(COc2ccccc2C(=O)N(CCCN)Cc2cccs2)c1 [AMTB, reference compound] | 7.3 ± 1.5 |  | 
16 | COC(=O)[C@@H]1Cc2c([nH]c3ccccc23)CN1C(=O)CCN [compound 17, (S)-Methyl 2-(3-Aminopropanoyl)-2,3,4,9-tetrahydro-1H-pyrido[3,4-b]indole-3-carboxylate] | > 100 |  | 
17 | O=C1NCC(=O)N2Cc3[nH]c4ccccc4c3C[C@@H]12 [compound 21, (S)-2,3,6,7,12,12a-Hexahydropyrazino[1′,2′:1,6]pyrido[3,4-b]indole-1,4-dione] | 11.4 ± 1.6 |  | 
18 | O=C1N[C@@H](Cc2ccccc2)C(=O)N2Cc3[nH]c4ccccc4c3C[C@@H]12 [compound 22, (3S,12aS)-3-Benzyl-2,3,12,12a-tetrahydropyrazino[1′,2′:1,6]pyrido[3,4-b]indole-1,4(6H,7H)-dione] | 1.6 ± 0.7 | 1.2 ± 1.3 | 
19 | O=C1[C@@H]2Cc3c([nH]c4ccccc34)CN2C(=O)N1Cc1ccc(F)cc1 [compound 28, (S)-2-(4-Fluorobenzyl)-5,6,11,11a-tetrahydro-1H-imidazo[1′,5′:1,6]pyrido[3,4-b]indole-1,3(2H)-dione] | 17.8 ± 1.2 |  | 

Continued, values first:

Row | IC50 [1] [µM] | IC50 [2] [µM] | rTRPM8 IC50 (calcium microfluorimetric assays) (supplementary xlsx) [µM] | SMILES
20 | 22 ± 1.4 |  |  | O=C(O)CC[C@@H]1N[C@H](C(=O)NCc2ccc(F)cc2)Cc2c1[nH]c1ccccc21 [12b, 3-((1S,3S)-3-((4-Fluorobenzyl)carbamoyl)-2,3,4,9-tetrahydro-1H-pyrido[3,4-b]indol-1-yl)propanoic Acid]
21 | 1.5 ± 1.1 |  |  | O=C1NCC(=O)N2[C@H](c3ccc(Cl)cc3)c3[nH]c4ccccc4c3C[C@@H]12 [27a, (6R,12aS)-6-(4-Chlorophenyl)-2,3,12,12a-tetrahydropyrazino[1′,2′:1,6]pyrido[3,4-b]indole-1,4(6H,7H)-dione]
22 | 1.7 ± 0.8 | 1.2 ± 1.7 |  | O=C1NCC(=O)N2[C@@H](c3ccc(Cl)cc3)c3[nH]c4ccccc4c3C[C@@H]12 [27b, (6S,12aS)-6-(4-Chlorophenyl)-2,3,12,12a-tetrahydropyrazino[1′,2′:1,6]pyrido[3,4-b]indole-1,4(6H,7H)-dione]
23 | 2.8 ± 1.2 |  | 22.9 ± 1.4 | COc1ccc(CN2C(=O)[C@@H]3Cc4c([nH]c5ccccc45)[C@@H](CC(C)C)N3C2=O)cc1 [29a, (5R,11aS)-5-Isobutyl-2-(4-methoxybenzyl)-5,6,11,11a-tetrahydro-1H-imidazo[1′,5′:1,6]pyrido[3,4-b]indole-1,3(2H)-dione]
24 | 0.8 ± 0.4 |  | 2.3 ± 0.8 | Cc1ccc(CN2C(=O)[C@@H]3Cc4c([nH]c5ccccc45)[C@@H](c4ccc(Cl)cc4)N3C2=O)cc1 [30a, (5R,11aS)-5-(4-Chlorophenyl)-2-(4-methylbenzyl)-5,6,11,11a-tetrahydro-1H-imidazo[1′,5′:1,6]pyrido[3,4-b]indole-1,3(2H)-dione]
25 | 6.4 ± 1.2 |  | 17.5 ± 1.4 | O=C1[C@@H]2Cc3c([nH]c4ccccc34)[C@@H](c3ccc(F)cc3)N2C(=O)N1Cc1ccccc1 [33a, (5R,11aS)-2-Benzyl-5-(4-fluorophenyl)-5,6,11,11a-tetrahydro-1H-imidazo[1′,5′:1,6]pyrido[3,4-b]indole-1,3(2H)-dione]
26 | 5.1 ± 1.2 |  | 27.2 ± 1.4 | NCCCN1C(=O)[C@@H]2Cc3c([nH]c4ccccc34)[C@@H](c3ccc(F)cc3)N2C1=O [35a, (5R,11aS)-2-(3-Aminopropyl)-5-(4-fluorophenyl)-5,6,11,11a-tetrahydro-1H-imidazo[1′,5′:1,6]pyrido[3,4-b]indole-1,3(2H)-dione]
27 | 2.8 ± 1.5 |  | 7.8 ± 2.4 | O=C1[C@@H]2Cc3c([nH]c4ccccc34)[C@@H](c3ccc(F)cc3)N2C(=O)N1c1cccc(C(F)(F)F)c1 [36a, (5R,11aS)-5-(4-Fluorophenyl)-2-(3-(trifluoromethyl)phenyl)-5,6,11,11a-tetrahydro-1H-imidazo[1′,5′:1,6]pyrido[3,4-b]indole-1,3(2H)-dione]
28 | 4.4 ± 1.3 |  | 5.1 ± 2.1 | O=C1[C@@H]2Cc3c([nH]c4ccccc34)[C@@H](c3ccc(F)cc3)N2C(=O)N1c1ccccc1F [37a, (5R,11aS)-2-(2-Fluorophenyl)-5-(4-fluorophenyl)-5,6,11,11a-tetrahydro-1H-imidazo[1′,5′:1,6]pyrido[3,4-b]indole-1,3(2H)-dione]
29 | 6.7 ± 1.2 |  | 7.2 ± 0.9 | O=C1[C@@H]2Cc3c([nH]c4ccccc34)[C@@H](c3ccc(F)cc3)N2C(=O)N1c1ccc(F)cc1 [38a, (5R,11aS)-2,5-Bis(4-fluorophenyl)-5,6,11,11a-tetrahydro-1H-imidazo[1′,5′:1,6]pyrido[3,4-b]indole-1,3(2H)-dione]
